# Test results published in patent US11419806B2, “Prebiotic oral care methods using a saccharide” (Colgate-Palmolive Company, priority 2013, dated 2022).
# Experiments:
# Assay in all cases: Twenty-four hour optical density growth in BHI
# Assay type in all cases: cell-based
# Fusobacterium nucleatum = settings: F nucleatum
# In short: (§1)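 Late-exponential cultures in BHI were adjusted to 1×10^7 CFU/ml and exposed to myo-inositol, D-lactitol, D-turanose or N-acetyl-D-mannosamine at final 5, 10, 20 and 25 μmol/ml, with no-saccharide controls. Incubation was anaerobic at 37° C; OD630 was read at 0 h and 24 h. Values are means of three days, each averaging quadruplicates.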
# Streptococcus sobrinus = settings: S sobrinus
# Streptococcus gordonii = settings: S gordonii
# Veillonella parvula = settings: V parvula
# In short: as §1
# Streptococcus mutans = settings: S mutans
# Tannerella forsythia = settings: T forsythia
# In short: as §1
# [1] = system: Aggregatibacter actinomycetemcomitans; settings: A actinomycetemcomitans
# S. sanguinis = system: S. sanguinis
# Capnocytophaga sputigena = settings: C sputigena
# In short: as §1
# Streptococcus mitis = settings: S mitis
# Actinomyces naeslundii = settings: A naeslundii
# In short: as §1
# Actinomyces viscosus = settings: A viscosus
# In short: as §1
# Streptococcus salivarius = settings: S salivarius
smiles,measurement,setting,value
"CC(=O)N[C@H](C=O)[C@@H](O)[C@H](O)[C@H](O)CO [N-acetyl-D-mannosamine, 2-acetamido-2-deoxy-D-mannose]",extent of growth: maximal OD630 over 24 hr divided by maximal OD of control (control = 1),Fusobacterium nucleatum; 5 μmol/ml,0.9065
same,extent of growth: maximal OD630 over 24 hr divided by maximal OD of control (control = 1),Fusobacterium nucleatum; 10 μmol/ml,0.8477
same,extent of growth: maximal OD630 over 24 hr divided by maximal OD of control (control = 1),Fusobacterium nucleatum; 20 μmol/ml,0.9564
same,extent of growth: maximal OD630 over 24 hr divided by maximal OD of control (control = 1),Fusobacterium nucleatum; 25 μmol/ml,0.9193
same,extent of growth: maximal OD630 over 24 hr divided by maximal OD of control (control = 1),Streptococcus sobrinus; 5 μmol/ml,0.9307
same,extent of growth: maximal OD630 over 24 hr divided by maximal OD of control (control = 1),Streptococcus sobrinus; 10 μmol/ml,0.7794
same,extent of growth: maximal OD630 over 24 hr divided by maximal OD of control (control = 1),Streptococcus sobrinus; 20 μmol/ml,0.7737
same,extent of growth: maximal OD630 over 24 hr divided by maximal OD of control (control = 1),Streptococcus sobrinus; 25 μmol/ml,0.7857
same,extent of growth: maximal OD630 over 24 hr divided by maximal OD of control (control = 1),Streptococcus gordonii; 5 μmol/ml,0.9930
same,extent of growth: maximal OD630 over 24 hr divided by maximal OD of control (control = 1),Streptococcus gordonii; 10 μmol/ml,1.0254
same,extent of growth: maximal OD630 over 24 hr divided by maximal OD of control (control = 1),Streptococcus gordonii; 20 μmol/ml,0.9827
same,extent of growth: maximal OD630 over 24 hr divided by maximal OD of control (control = 1),Streptococcus gordonii; 25 μmol/ml,1.0015
same,extent of growth: maximal OD630 over 24 hr divided by maximal OD of control (control = 1),Veillonella parvula; 5 μmol/ml,1.0227
same,extent of growth: maximal OD630 over 24 hr divided by maximal OD of control (control = 1),Veillonella parvula; 10 μmol/ml,1.0174
same,extent of growth: maximal OD630 over 24 hr divided by maximal OD of control (control = 1),Veillonella parvula; 20 μmol/ml,1.0466
same,extent of growth: maximal OD630 over 24 hr divided by maximal OD of control (control = 1),Veillonella parvula; 25 μmol/ml,1.0213
same,extent of growth: maximal OD630 over 24 hr divided by maximal OD of control (control = 1),Streptococcus mutans; 5 μmol/ml,0.8669
same,extent of growth: maximal OD630 over 24 hr divided by maximal OD of control (control = 1),Streptococcus mutans; 10 μmol/ml,0.8670
same,extent of growth: maximal OD630 over 24 hr divided by maximal OD of control (control = 1),Streptococcus mutans; 20 μmol/ml,0.8300
same,extent of growth: maximal OD630 over 24 hr divided by maximal OD of control (control = 1),Streptococcus mutans; 25 μmol/ml,0.8283
same,extent of growth: maximal OD630 over 24 hr divided by maximal OD of control (control = 1),Tannerella forsythia; 5 μmol/ml,0.9742
same,extent of growth: maximal OD630 over 24 hr divided by maximal OD of control (control = 1),Tannerella forsythia; 10 μmol/ml,0.9715
same,extent of growth: maximal OD630 over 24 hr divided by maximal OD of control (control = 1),Tannerella forsythia; 20 μmol/ml,0.9706
same,extent of growth: maximal OD630 over 24 hr divided by maximal OD of control (control = 1),Tannerella forsythia; 25 μmol/ml,0.9451
same,extent of growth: maximal OD630 over 24 hr divided by maximal OD of control (control = 1),[1]; 5 μmol/ml,1.0637
same,extent of growth: maximal OD630 over 24 hr divided by maximal OD of control (control = 1),[1]; 10 μmol/ml,0.9102
same,extent of growth: maximal OD630 over 24 hr divided by maximal OD of control (control = 1),[1]; 20 μmol/ml,0.9405
same,extent of growth: maximal OD630 over 24 hr divided by maximal OD of control (control = 1),[1]; 25 μmol/ml,0.8614
same,extent of growth: maximal OD630 over 24 hr divided by maximal OD of control (control = 1),S. sanguinis; 5 μmol/ml,0.8350
same,extent of growth: maximal OD630 over 24 hr divided by maximal OD of control (control = 1),S. sanguinis; 10 μmol/ml,0.8644
same,extent of growth: maximal OD630 over 24 hr divided by maximal OD of control (control = 1),S. sanguinis; 20 μmol/ml,0.8219
same,extent of growth: maximal OD630 over 24 hr divided by maximal OD of control (control = 1),S. sanguinis; 25 μmol/ml,0.8122
same,extent of growth: maximal OD630 over 24 hr divided by maximal OD of control (control = 1),Capnocytophaga sputigena; 5 μmol/ml,0.9620
same,extent of growth: maximal OD630 over 24 hr divided by maximal OD of control (control = 1),Capnocytophaga sputigena; 10 μmol/ml,0.9635
same,extent of growth: maximal OD630 over 24 hr divided by maximal OD of control (control = 1),Capnocytophaga sputigena; 20 μmol/ml,0.9576
same,extent of growth: maximal OD630 over 24 hr divided by maximal OD of control (control = 1),Capnocytophaga sputigena; 25 μmol/ml,0.9554
same,extent of growth: maximal OD630 over 24 hr divided by maximal OD of control (control = 1),Streptococcus mitis; 5 μmol/ml,1.3409
same,extent of growth: maximal OD630 over 24 hr divided by maximal OD of control (control = 1),Streptococcus mitis; 10 μmol/ml,1.3866
same,extent of growth: maximal OD630 over 24 hr divided by maximal OD of control (control = 1),Streptococcus mitis; 20 μmol/ml,1.7155
same,extent of growth: maximal OD630 over 24 hr divided by maximal OD of control (control = 1),Streptococcus mitis; 25 μmol/ml,1.7409
same,extent of growth: maximal OD630 over 24 hr divided by maximal OD of control (control = 1),Actinomyces naeslundii; 5 μmol/ml,0.9820
same,extent of growth: maximal OD630 over 24 hr divided by maximal OD of control (control = 1),Actinomyces naeslundii; 10 μmol/ml,0.8708
same,extent of growth: maximal OD630 over 24 hr divided by maximal OD of control (control = 1),Actinomyces naeslundii; 20 μmol/ml,0.9716
same,extent of growth: maximal OD630 over 24 hr divided by maximal OD of control (control = 1),Actinomyces naeslundii; 25 μmol/ml,0.8535
same,extent of growth: maximal OD630 over 24 hr divided by maximal OD of control (control = 1),Actinomyces viscosus; 5 μmol/ml,0.8017
same,extent of growth: maximal OD630 over 24 hr divided by maximal OD of control (control = 1),Actinomyces viscosus; 10 μmol/ml,0.8753
same,extent of growth: maximal OD630 over 24 hr divided by maximal OD of control (control = 1),Actinomyces viscosus; 20 μmol/ml,0.9225
same,extent of growth: maximal OD630 over 24 hr divided by maximal OD of control (control = 1),Actinomyces viscosus; 25 μmol/ml,0.8824
same,extent of growth: maximal OD630 over 24 hr divided by maximal OD of control (control = 1),Streptococcus salivarius; 5 μmol/ml,0.8639
same,extent of growth: maximal OD630 over 24 hr divided by maximal OD of control (control = 1),Streptococcus salivarius; 10 μmol/ml,0.8849
same,extent of growth: maximal OD630 over 24 hr divided by maximal OD of control (control = 1),Streptococcus salivarius; 20 μmol/ml,0.8460
same,extent of growth: maximal OD630 over 24 hr divided by maximal OD of control (control = 1),Streptococcus salivarius; 25 μmol/ml,0.9251
